The target of this test is T1, Toll-like receptor 7 (Homo sapiens, UniProt Q9NYK1).
T1 sequence (Q9NYK1 whole entry): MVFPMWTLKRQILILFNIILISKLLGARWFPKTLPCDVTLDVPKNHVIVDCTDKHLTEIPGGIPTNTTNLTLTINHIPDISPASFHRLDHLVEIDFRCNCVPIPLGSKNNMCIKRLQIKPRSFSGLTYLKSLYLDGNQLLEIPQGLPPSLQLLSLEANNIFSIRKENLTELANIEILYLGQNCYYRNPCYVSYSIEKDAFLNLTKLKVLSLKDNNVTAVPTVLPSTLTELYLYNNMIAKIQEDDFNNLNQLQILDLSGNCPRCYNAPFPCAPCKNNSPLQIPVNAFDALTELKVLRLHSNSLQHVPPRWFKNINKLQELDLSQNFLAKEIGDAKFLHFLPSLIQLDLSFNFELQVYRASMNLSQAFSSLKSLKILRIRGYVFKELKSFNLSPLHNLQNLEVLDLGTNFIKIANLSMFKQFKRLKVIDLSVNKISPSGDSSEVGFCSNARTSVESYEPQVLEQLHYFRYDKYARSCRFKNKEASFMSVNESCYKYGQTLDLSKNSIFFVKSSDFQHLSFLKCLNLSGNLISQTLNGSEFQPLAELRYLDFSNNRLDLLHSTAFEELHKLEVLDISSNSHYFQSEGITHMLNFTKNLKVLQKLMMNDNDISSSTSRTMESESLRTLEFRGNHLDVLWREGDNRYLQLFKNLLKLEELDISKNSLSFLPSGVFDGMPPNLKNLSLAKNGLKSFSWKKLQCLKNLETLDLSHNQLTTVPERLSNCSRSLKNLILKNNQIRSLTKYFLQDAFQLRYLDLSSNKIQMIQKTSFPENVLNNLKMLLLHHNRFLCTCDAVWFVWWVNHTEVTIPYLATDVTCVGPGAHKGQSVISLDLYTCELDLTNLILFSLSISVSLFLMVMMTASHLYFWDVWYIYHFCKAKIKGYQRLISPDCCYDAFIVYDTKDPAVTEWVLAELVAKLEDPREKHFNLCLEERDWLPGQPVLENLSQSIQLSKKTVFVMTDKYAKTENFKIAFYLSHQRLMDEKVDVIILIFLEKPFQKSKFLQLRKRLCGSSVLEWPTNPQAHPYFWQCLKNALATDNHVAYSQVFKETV
As to the kind of experiment: HEK-Blue™ TLR7 cells were added to each well of a 384-well tissue-culture plate (15,000 cells per well) and incubated 16-18 h at 37° C., 5% CO2. Compounds (100 nl) were dispensed into wells containing the HEK-Blue™ TLR cells and the treated cells were incubated at 37° C., 5% CO2. After 18 h treatment ten microliters of freshly-prepared Quanti-Blue reagent (Invivogen) was added to each well, incubated for 30 min (37° C., 5% CO2) and SEAP levels measured using an Envision plate reader (OD=620 nm).

Compound `CCCCOc1nc(N)c2nc(O)n(Cc3ccc(-c4csc(CN)c4)nc3)c2n1` came in with a 50% effective concentration (EC50) of 52 nM.

In the case of `CCCCOc1nc(N)c2nc(O)n(Cc3ccc(-c4csc(CN)c4)cc3)c2n1`, a half-maximal response (EC50) required 59 nM.

Broadly, the EC50 is the concentration that produces a half-maximal response. Read a high EC50 as lower potency in that assay.

The values above are taken from ChEMBL document CHEMBL5727404, “Toll-like receptor 7 (TLR7) agonists having a heterobiaryl moiety, conjugates thereof, and methods and uses therefor” (2019).
